Test [1] has as its target T1, glutathione-S-transferase (GST) tagged LXRbeta LBD (ligand binding domain) (Homo sapiens, UniProt P55055).
T1 construct: purchased Invitrogen pv4658.pps
T1 sequence (P55055 222-460 limits assumed): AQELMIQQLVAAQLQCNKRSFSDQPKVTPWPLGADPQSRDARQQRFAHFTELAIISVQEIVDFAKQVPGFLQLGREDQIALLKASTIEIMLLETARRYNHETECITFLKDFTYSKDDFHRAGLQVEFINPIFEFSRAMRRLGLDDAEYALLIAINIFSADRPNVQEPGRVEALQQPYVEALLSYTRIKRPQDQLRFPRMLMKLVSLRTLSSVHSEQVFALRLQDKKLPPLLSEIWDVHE
The experiment in a line: LanthaScreen TR-FRET Liver X Receptor Coactivator Assay, co-activator recruitment to LXRbeta LBD. The test is classed as biochemical. The note with it: for Emax: efficacy at max dose, in relation to reference dual agonist T0901317, read-out: LXR beta Activity @ max dose (%); for EC50: potency (Inflection Point, IP), co-activator recruitment to LXRbeta LBD, in relation to T0901317, read-out: LXR beta IP. Summed up: (§1)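 Readout is time-resolved FRET between a terbium anti-GST antibody bound to the LBD and a fluorescein-tagged coactivator peptide recruited on ligand binding. Plates were incubated at room temperature before reading. Potency (IP) and efficacy (Emax) are referenced to T0901317.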
For orientation: Time-resolved FRET reads energy transfer from a long-lived donor to a nearby acceptor.

In test [2] the target is T2, glutathione-S-transferase (GST) tagged LXRalpha LBD (ligand binding domain) (Homo sapiens, UniProt Q13133).
T2 construct: purchased Invitrogen pv4655
T2 sequence (Q13133 209-447 limits assumed): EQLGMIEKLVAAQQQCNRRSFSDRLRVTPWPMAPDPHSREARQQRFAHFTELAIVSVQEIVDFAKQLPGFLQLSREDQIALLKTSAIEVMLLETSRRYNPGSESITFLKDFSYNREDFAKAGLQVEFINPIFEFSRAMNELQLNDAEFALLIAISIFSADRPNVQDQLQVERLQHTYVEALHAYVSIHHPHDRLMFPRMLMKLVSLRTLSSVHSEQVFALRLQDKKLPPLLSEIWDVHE
The experiment in a line: LanthaScreen TR-FRET Liver X Receptor Coactivator Assay, co-activator recruitment to LXRalpha LBD. The test is classed as biochemical. The settings on record: for Emax: efficacy at max dose, in relation to reference dual agonist T0901317, read-out: LXR alpha Activity @ max dose (%); for LXR alpha IP (nM) / EC50: potency (Inflection Point, IP), co-activator recruitment to LXRalpha LBD, in relation to T0901317; for EC50: read-out: LXR alpha IP. An outline of the steps: as §1

Structures are written as SMILES.

As to `CCOc1cccc([C@@](O)(C(=O)N2CCC(CC3(C)CCN(c4ccc(C(=O)N(C)C)c(OC)n4)CC3)CC2)C(F)(F)F)c1` [Example 7-24], in test [1], the Emax was found to be 106% and the EC50 was 92 nM. In addition, in test [2], the Emax is 7% and the “LXR alpha IP (nM)” value is reported as “NO IP”.
On to `CNC(=O)c1ccc(N2CCC(CC3CCN(C(=O)[C@](O)(c4ccccc4)C(F)(F)F)CC3)CC2)cc1Cl` [Example 7-25, 2-chloro-N-methyl-4-[4-({1-[(2R)-3,3,3-trifluoro-2-hydroxy-2-phenylpropanoyl]piperidin-4-yl}methyl)piperidin-1-yl]benzamide], for which, in test [1], the Emax was determined as 77% and the EC50 is 20 nM. For the same compound, in test [2], the Emax worked out at 44% and the EC50 amounted to 343 nM.
On the same counts, the results for `CNC(=O)c1ccc(N2CCC(OC3CCN(C(=O)[C@](O)(c4ccccc4)C(F)(F)F)CC3)CC2)cc1Cl` [Example 7-26, 2-chloro-N-methyl-4-[4-({1-[(2R)-3,3,3-trifluoro-2-hydroxy-2-phenylpropanoyl]piperidin-4-yl}oxy)piperidin-1-yl]benzamide] are 115%, 125 nM, 35% and 2260 nM.
As for `CNC(=O)c1ccc(N2CCC(OC3CCN(C(=O)C4(c5ccccc5F)CCCC4)CC3)CC2)cc1Cl` [Example 7-27, 2-chloro-4-{4-[(1-{[1-(2-fluorophenyl)cyclopentyl]carbonyl}piperidin-4-yl)oxy]piperidin-1-yl}-N-methylbenzamide], in test [1], the Emax came to 113% and the EC50 turned out to be 446 nM. In test [2], the Emax turned out to be 27% and the EC50 was 4390 nM.
For `CNC(=O)c1ccc(N2CCC(OC3CCN(C(=O)C(O)(c4cccc(C(F)(F)F)c4)C(F)(F)F)CC3)CC2)cc1Cl` (stereo not drawn) [Example 7-28, 2-chloro-N-methyl-4-{4-[(1-{3,3,3-trifluoro-2-hydroxy-2-[3-(trifluoromethyl)phenyl]propanoyl}piperidin-4-yl)oxy]piperidin-1-yl} benzamide] the same measures were 105%, 243 nM, 28% and 2020 nM.
As to `CNC(=O)c1ccc(N2CCC(OC3CCN(C(=O)C(O)(c4cccc(C)c4)C(F)(F)F)CC3)CC2)cc1Cl` (stereo not drawn) [Example 7-29, 2-chloro-N-methyl-4-[4-({1-[3,3,3-trifluoro-2-hydroxy-2-(3-methylphenyl)propanoyl]piperidin-4-yl}oxy)piperidin-1-yl]benzamide], in test [1], the Emax stood at 102% and the EC50 amounted to 176 nM. Also, in test [2], the Emax was found to be 25% and the EC50 came out at 3240 nM.
On the same counts, the results for `CNC(=O)c1ccc(N2CCC(OC3CCN(C(=O)C(O)(c4cccc(F)c4)C(F)(F)F)CC3)CC2)cc1Cl` (stereo not drawn) [Example 7-30, 2-chloro-N-methyl-4-[4-({1-[3,3,3-trifluoro-2-(3-fluorophenyl)-2-hydroxypropanoyl]piperidin-4-yl}oxy)piperidin-1-yl] benzamide] are 120%, 91 nM, 50% and 3790 nM.
As to `CNC(=O)c1ccc(N2CCC(OC3CCN(C(=O)C(O)(c4cccc(Cl)c4)C(F)(F)F)CC3)CC2)cc1Cl` (stereo not drawn) [Example 7-31, 2-chloro-4-[4-({1-[2-(3-chlorophenyl)-3,3,3-trifluoro-2-hydroxypropanoyl]piperidin-4-yl}oxy)piperidin-1-yl]-N-methylbenzamide], the Emax in test [1] came out at 112%; in test [2] it was 40%. Moreover, the EC50 in test [1] turned out to be 52 nM; in test [2] it was 1580 nM.
Consider `CNC(=O)c1ccc(N2CCC(OC3CCN(C(=O)C(O)(c4cccc(OC)c4)C(F)(F)F)CC3)CC2)cc1Cl` (stereo not drawn) [Example 7-32, 2-chloro-N-methyl-4-[4-({1-[3,3,3-trifluoro-2-hydroxy-2-(3-methoxyphenyl)propanoyl]piperidin-4-yl}oxy)piperidin-1-yl]benzamide], for which, in test [1], the Emax amounted to 92% and the EC50 stood at 184 nM. In test [2], the Emax turned out to be 18% and the EC50 was 4240 nM.
In the case of `CNC(=O)c1ccc(N2CCC(CC3CCN(C(=O)[C@](O)(c4cccc(OC)c4)C(F)(F)F)CC3)CC2)cc1Cl` [Example 7-33, 2-chloro-N-methyl-4-[4-({1-[(2R)-3,3,3-trifluoro-2-hydroxy-2-(3-methoxyphenyl)propanoyl]piperidin-4-yl}methyl)piperidin-1-yl]benzamide], in test [1], the Emax is 60% and the EC50 was found to be 10 nM. In addition, in test [2], the Emax was determined as 12% and the “LXR alpha IP (nM)” value is listed as “NO IP”.
As to `CNC(=O)c1ccc(N2CCC(CC3CCN(C(=O)C4(c5ccccc5F)CCCC4)CC3)CC2)cc1Cl` [Example 7-34, 2-chloro-4-{4-[(1-{[1-(2-fluorophenyl)cyclopentyl]carbonyl}piperidin-4-yl)methyl]piperidin-1-yl}-N-methylbenzamide], the Emax in test [1] is 82%; in test [2] it was 19%. Moreover, the EC50 in test [1] turned out to be 169 nM; in test [2], 2190 nM.
For `CNC(=O)c1ccc(N2CCC(CC3CCN(C(=O)C(O)(c4cccc(C(F)(F)F)c4)C(F)(F)F)CC3)CC2)cc1Cl` (stereo not drawn) [Example 7-35, 2-chloro-N-methyl-4-{4-[(1-{3,3,3-trifluoro-2-hydroxy-2-[3-(trifluoromethyl)phenyl]propanoyl}piperidin-4-yl)methyl]piperidin-1-yl}benzamide] the same measures were 78%, 25%, 96 nM and 784 nM.
For `CNC(=O)c1ccc(N2CCC(CC3CCN(C(=O)C(O)(c4cccc(C)c4)C(F)(F)F)CC3)CC2)cc1Cl` (stereo not drawn) [Example 7-36, 2-chloro-N-methyl-4-[4-({1-[3,3,3-trifluoro-2-hydroxy-2-(3-methylphenyl)propan-oyl]piperidin-4-yl}methyl)piperidin-1-yl]benzamide] the same measures were 65%, 19%, 28 nM and 762 nM.
As to `CNC(=O)c1ccc(N2CCC(CC3CCN(C(=O)C(O)(c4cccc(Cl)c4)C(F)(F)F)CC3)CC2)cc1Cl` (stereo not drawn) [Example 7-37, 2-chloro-4-[4-({1-[2-(3-chlorophenyl)-3,3,3-trifluoro-2-hydroxypropanoyl]piperidin-4-yl}methyl)piperidin-1-yl]-N-methylbenzamide], in test [1], the Emax was 90% and the EC50 turned out to be 16 nM. In test [2], the Emax came out at 27% and the EC50 is 340 nM.
On to `CNC(=O)c1ccc(N2CCC(CC3CN(C(=O)[C@](O)(c4cccc(OC)c4)C(F)(F)F)C3)CC2)cc1Cl` [Example 7-38, 2-chloro-N-methyl-4-[4-({1-[(2R)-3,3,3-trifluoro-2-hydroxy-2-(3-methoxyphenyl)propanoyl]azetidin-3-yl}methyl)piperidin-1-yl]benzamide], for which, in test [1], the Emax is 67% and the EC50 was found to be 136 nM. Besides, in test [2], the Emax came to 1% and the “LXR alpha IP (nM)” value was “NO IP”.
For `CCOc1cccc([C@@](O)(C(=O)N2CC(CC3CCN(c4ccc(C(=O)NC)c(Cl)c4)CC3)C2)C(F)(F)F)c1` [Example 7-39, 2-chloro-4-[4-({1-[(2R)-2-(3-ethoxyphenyl)-3,3,3-trifluoro-2-hydroxypropanoyl]azetidin-3-yl}methyl)piperidin-1-yl]-N-methylbenzamide] the same measures were 59%, 91 nM, 0% and “NO IP”.
For `CN(C)C(=O)c1ccc(N2CCC(CC3CN(C(=O)[C@](O)(c4cc(F)cc(Cl)c4)C(F)(F)F)C3)CC2)nc1Cl` [Example 7-40, 2-chloro-6-[4-({1-[(2R)-2-(3-chloro-5-fluorophenyl)-3,3,3-trifluoro-2-hydroxypropanoyl]azetidin-3-yl}methyl)piperidin-1-yl]-N,N-dimethylpyridine-3-carboxamide], the Emax came out at 113% in test [1] and 49% in test [2]. In addition, the EC50 in test [1] was determined as 4 nM; in test [2], 291 nM.
On the same counts, the results for `CN(C)C(=O)c1ccc(N2CCC(CC3CN(C(=O)[C@](O)(c4cccc(Cl)c4)C(F)(F)F)C3)CC2)nc1Cl` [Example 7-41, 2-chloro-6-[4-({1-[(2R)-2-(3-chlorophenyl)-3,3,3-trifluoro-2-hydroxypropanoyl]azetidin-3-yl}methyl)piperidin-1-yl]-N,N-dimethylpyridine-3-carboxamide] are 110%, 35%, 11 nM and 525 nM.

The values above are taken from US10752587B2, “Homobispiperidinyl derivatives as liver X receptor beta agonists, compositions and their use” (Merck Sharp & Dohme Corp., priority 2015, dated 2020).
